Reference: the NIST ThermoML archive (doi:10.1016/j.jct.2008.07.016)
± gives the expanded uncertainty stated by the source.

Test: molar enthalpy of vaporization or sublimation
Conditions: 298.15 K; Crystal; microcalorimetry

molar enthalpy [kcal/mol]	SMILES
22.1 ± 1.1	Brc1ccc2[nH]ccc2c1 [1H-indole, 5-bromo-]
21 ± 0.908	Brc1ccc2c(c1)CCN2 [5-Bromoindoline]
